Test results from ChEMBL document CHEMBL1221333, “Design, synthesis, and biological evaluation of conformationally constrained glycerol 3-phosphate acyltransferase inhibitors” (Bioorg Med Chem, 2010).

Tests used:
[1] = Inhibition of GPAT at 40 ug/ml
[2] = Inhibition of GPAT

SMILES	inhibition [1]	IC50 [2]
CCCCCCCCS(=O)(=O)N[C@H]1CC[C@H](CC(=O)O)[C@@H]1O (racemic)	8%	–
CCCCCCCCS(=O)(=O)N[C@@H]1[C@@H](O)CC[C@H]1C(=O)O (racemic)	12%	–
CCCCCCCCS(=O)(=O)N[C@H]1CCC[C@H](CC(=O)O)[C@@H]1O (racemic)	23%	–
CCCCCCCCS(=O)(=O)N[C@@H]1CCC[C@H](CC(=O)O)[C@H]1O (racemic)	17%	–
CCCCCCCCS(=O)(=O)N[C@H]1CCC[C@H](C(=O)O)[C@H]1O (racemic)	36%	164 µM
CCCCCCCCS(=O)(=O)N[C@H]1CC[C@H](C(=O)O)[C@H]1O (racemic)	19%	–
CCCCCCCCS(=O)(=O)N[C@H]1CCC[C@H](C(=O)O)[C@@H]1O (racemic)	15%	–
CCCCCCCCS(=O)(=O)N[C@H]1CC[C@H](CC(=O)O)[C@H]1O (racemic)	8%	295 µM
CCCCCCCCCS(=O)(=O)Nc1ccccc1C(=O)O	97%	24.7 µM
CCCCCCCCS(=O)(=O)N[C@@H]1CC[C@H](C(=O)O)[C@H]1O (racemic)	25%	255 µM
CCCCCCCCS(=O)(=O)N[C@@H]1CCC[C@H](C(=O)O)[C@H]1O (racemic)	17%	–
CCCCCCCCS(=O)(=O)N[C@@H]1CC[C@H](CC(=O)O)[C@H]1O (racemic)	16%	–
CCCCCCCCS(=O)(=O)N[C@H]1CCC[C@H](CC(=O)O)[C@H]1O (racemic)	2%	–
CCCCCCCCS(=O)(=O)N[C@H]1[C@H](O)CC[C@H]1C(=O)O (racemic)	15%	–
CCCCCCCCS(=O)(=O)N[C@H]1CC[C@H](C(=O)O)[C@@H]1O (racemic)	3%	324 µM
